Results published in patent US5349127A, “Expression of herbicide metabolizing cytochromes P450” (priority 1992, dated 1994).

What was measured:
S. lividans C37 = experiment: Percent conversion of herbicides by cultures (Example 16); type: in vitro ADME, Streptomyces lividans; conditions: 3.0 mg herbicide in 25 ml broth; 24 hours
Experimental: (§1) Separate cultures (50 ml) inoculated with S. lividans C37, S. lividans transformed with pCAO200SU1-FeS-B#9, S. griseolus ATCC11796, S. griseolus PH2003 transformed with pIJ425, or S. ariseolus PH2003 transformed with pCS325 were cultured in sporulation broth for 18 hours at 30° C. with shaking. Each culture was then resuspended in 25 ml fresh sporulation broth and 3.0 mg herbicide added. In the case of cultures of S. griseolus ATCC11796, a second culture containing herbicide and 3.0 mg 10001 was also prepared. Each culture was reincubated for 24 hours, then an aliquot of the medium was withdrawn and analyzed by HPLC. The percent conversion of herbicide was determined.

[1] = test system: S. lividans pCAO200SU1-FeS-B#9; experiment: as above; type: in vitro ADME, Streptomyces lividans; conditions: 3.0 mg herbicide in 25 ml broth; 24 hours
Experimental: as §1

[2] = test system: Arabidopsis thaliana seedlings; experiment: Seed germination assay of transgenic Arabidopsis (Example 26); type: in vivo; design: Visual Inhibition Ratings of Seedlings: key: 4: complete inhibition; 1: no inhibition; conditions: for #R number of resistant seedlings / #S number of sensitive seedlings / % R percent of seedlings which are resistant: 10015 5 ppb
Experimental: T2 seed was harvested from selected putative transformants and sown on GM medium containing 50 mg/l kanamycin and that containing 5 ppb 10015. Plates were sealed with filter tape, cold treated for 2 or more days at 4° C., and then incubated for 10 to 20 days at 23° C. under constant illumination as described above. Seedlings were scored as resistant (green, true leaves develop) and sensitive (no true leaves develop). […] The percent of resistant seedlings is inversely proportional with the two selections. Kanamycin is a positive selection for those seedlings that carry the foreign DNA.
Selected T2 seedlings that were kanamycin resistant were transplanted to soil and were grown to maturity at 21° C. daytime (14 hours) 18° C. nighttime (10 hours) at 65-80% relative humidity. T3 seed was collected, sterilized, and germinated on GM medium containing 50 mg/l kanamycin and that containing 5 ppb 10015. Plates were sealed with filter tape, cold treated for 2 or more days at 4° C., and then incubated for 10 to 20 days at 23° C. under constant illumination as described above. Two of the six plants produced seed that was 100% resistant to kanamycin and 100% sensitive to 10015; they are homozygous for the inserted DNA. The other four parents are heterozygous and show an inverse proportion of kanamycin and 10015 resistant seedlings. […] Therefore, seedlings expressing the P450SU1 gene can be negatively selected.
Germination assays of homozygous seed on various concentrations of 10015 were performed to assay the relative sensitivity to 10015 produced by the three different promoters and between independent transformants. Seed was sterilized, sown on GM medium with 0, 0.5, 1, 2, 5, 10 and 20 ppb 10015, incubated, and scored as described above. In addition, seedlings are rated on a scale of one to three for the amount of growth.
Over 500 seed that are homozygous for the P450SU1 coding region were sown on the same plates. The plates were sealed, cold-treated, and incubated as previously described. […] Wild type seedlings were unaffected by the dying transformed seedlings. In addition, when greater than 10,000 seed of a homozygous Cab-SU111 plant was sown on GM medium with 10 ppb 10015, then cold-treated and incubated as described above, eighteen seedlings were resistant to 10015 and were unaffected by neighboring seedlings.

Which “Percent Conversion” value (S. lividans C37) does the source give for `CCOC(=O)c1ccccc1S(=O)(=O)NC(=O)Nc1nc(Cl)cc(OC)n1` [compound 10001, N-[(4-chloro-6-methoxy-pyrimidin-2-yl)aminocarbonyl]-2-ethoxycarbonylbenzenesulfonamide] here?
Its value is 0%.

What about the “Percent Conversion” value [1] of the same compound?
Its value is 56%.

Which results are given for `COc1cc(OC)nc(NC(=O)NS(=O)(=O)c2cccc3c2S(=O)(=O)N(C(C)C)C3)n1` [compound 10015]?
Visual Inhibition Ratings of Seedlings ([2]; 12.1.1 Cab-SU111, 1 ppb 10015): 1; Visual Inhibition Ratings of Seedlings ([2]; 12.1.1 Cab-SU111, 2 ppb 10015): 1; Visual Inhibition Ratings of Seedlings ([2]; 12.1.1 Cab-SU111, 5 ppb 10015): 2; Visual Inhibition Ratings of Seedlings ([2]; 12.1.1 Cab-SU111, 10 ppb 10015): 4; Visual Inhibition Ratings of Seedlings ([2]; 12.1.1 Cab-SU111, 20 ppb 10015): 4; Visual Inhibition Ratings of Seedlings ([2]; 12.16.2 Cab-SU111, 1 ppb 10015): 1; Visual Inhibition Ratings of Seedlings ([2]; 12.16.2 Cab-SU111, 2 ppb 10015): 1; Visual Inhibition Ratings of Seedlings ([2]; 12.16.2 Cab-SU111, 5 ppb 10015): 1; Visual Inhibition Ratings of Seedlings ([2]; 12.16.2 Cab-SU111, 10 ppb 10015): 1; Visual Inhibition Ratings of Seedlings ([2]; 12.16.2 Cab-SU111, 20 ppb 10015): 1; Visual Inhibition Ratings of Seedlings ([2]; 12.20.5 Cab-SU111, 1 ppb 10015): 1; Visual Inhibition Ratings of Seedlings ([2]; 12.20.5 Cab-SU111, 2 ppb 10015): 2; Visual Inhibition Ratings of Seedlings ([2]; 12.20.5 Cab-SU111, 5 ppb 10015): 3; Visual Inhibition Ratings of Seedlings ([2]; 12.20.5 Cab-SU111, 10 ppb 10015): 4; Visual Inhibition Ratings of Seedlings ([2]; 12.20.5 Cab-SU111, 20 ppb 10015): 4; Visual Inhibition Ratings of Seedlings ([2]; 13.3.1 SU18, 1 ppb 10015): 1; Visual Inhibition Ratings of Seedlings ([2]; 13.3.1 SU18, 2 ppb 10015): 1; Visual Inhibition Ratings of Seedlings ([2]; 13.3.1 SU18, 5 ppb 10015): 2; Visual Inhibition Ratings of Seedlings ([2]; 13.3.1 SU18, 10 ppb 10015): 4; Visual Inhibition Ratings of Seedlings ([2]; 13.3.1 SU18, 20 ppb 10015): 4; Visual Inhibition Ratings of Seedlings ([2]; 13.4.6 SSU-SU111, 1 ppb 10015): 1; Visual Inhibition Ratings of Seedlings ([2]; 13.4.6 SSU-SU111, 2 ppb 10015): 1; Visual Inhibition Ratings of Seedlings ([2]; 13.4.6 SSU-SU111, 5 ppb 10015): 3; Visual Inhibition Ratings of Seedlings ([2]; 13.4.6 SSU-SU111, 10 ppb 10015): 4; Visual Inhibition Ratings of Seedlings ([2]; 13.4.6 SSU-SU111, 20 ppb 10015): 4; Visual Inhibition Ratings of Seedlings ([2]; 17.1.10 SU18, 1 ppb 10015): 1; Visual Inhibition Ratings of Seedlings ([2]; 17.1.10 SU18, 2 ppb 10015): 1; Visual Inhibition Ratings of Seedlings ([2]; 17.1.10 SU18, 5 ppb 10015): 3; Visual Inhibition Ratings of Seedlings ([2]; 17.1.10 SU18, 10 ppb 10015): 4; Visual Inhibition Ratings of Seedlings ([2]; 17.1.10 SU18, 20 ppb 10015): 4; Visual Inhibition Ratings of Seedlings ([2]; 17.17.3 SU18, 1 ppb 10015): 1; Visual Inhibition Ratings of Seedlings ([2]; 17.17.3 SU18, 5 ppb 10015): 1; Visual Inhibition Ratings of Seedlings ([2]; 17.17.3 SU18, 10 ppb 10015): 2; Visual Inhibition Ratings of Seedlings ([2]; 17.17.3 SU18, 20 ppb 10015): 4; Visual Inhibition Ratings of Seedlings ([2]; 17.74.4 SSU-SU111, 1 ppb 10015): 1; Visual Inhibition Ratings of Seedlings ([2]; 17.74.4 SSU-SU111, 2 ppb 10015): 1; Visual Inhibition Ratings of Seedlings ([2]; 17.74.4 SSU-SU111, 5 ppb 10015): 2; Visual Inhibition Ratings of Seedlings ([2]; 17.74.4 SSU-SU111, 10 ppb 10015): 3; Visual Inhibition Ratings of Seedlings ([2]; 17.74.4 SSU-SU111, 20 ppb 10015): 3; Visual Inhibition Ratings of Seedlings ([2]; 17.92.3 SSU-SU111, 1 ppb 10015): 1; Visual Inhibition Ratings of Seedlings ([2]; 17.92.3 SSU-SU111, 2 ppb 10015): 1; Visual Inhibition Ratings of Seedlings ([2]; 17.92.3 SSU-SU111, 5 ppb 10015): 1; Visual Inhibition Ratings of Seedlings ([2]; 17.92.3 SSU-SU111, 10 ppb 10015): 1; Visual Inhibition Ratings of Seedlings ([2]; 17.92.3 SSU-SU111, 20 ppb 10015): 1; #R number of resistant seedlings ([2]; T2 seed ID 12-1, pCab-SU111): 3; #S number of sensitive seedlings ([2]; T2 seed ID 12-1, pCab-SU111): 10; % R percent of seedlings which are resistant ([2]; T2 seed ID 12-1, pCab-SU111): 23%; #R number of resistant seedlings ([2]; T2 seed ID 12-2, pCab-SU111): 13; #S number of sensitive seedlings ([2]; T2 seed ID 12-2, pCab-SU111): 0; % R percent of seedlings which are resistant ([2]; T2 seed ID 12-2, pCab-SU111): 100%; #R number of resistant seedlings ([2]; T2 seed ID 12-4, pCab-SU111): 12; #S number of sensitive seedlings ([2]; T2 seed ID 12-4, pCab-SU111): 8; % R percent of seedlings which are resistant ([2]; T2 seed ID 12-4, pCab-SU111): 60%; #R number of resistant seedlings ([2]; T2 seed ID 12-5, pCab-SU111): 15; #S number of sensitive seedlings ([2]; T2 seed ID 12-5, pCab-SU111): 0; % R percent of seedlings which are resistant ([2]; T2 seed ID 12-5, pCab-SU111): 100%; #R number of resistant seedlings ([2]; T2 seed ID 12-6, pCab-SU111): 5; #S number of sensitive seedlings ([2]; T2 seed ID 12-6, pCab-SU111): 9; % R percent of seedlings which are resistant ([2]; T2 seed ID 12-6, pCab-SU111): 36%; #R number of resistant seedlings ([2]; T2 seed ID 12-7, pCab-SU111): 9; #S number of sensitive seedlings ([2]; T2 seed ID 12-7, pCab-SU111): 13; % R percent of seedlings which are resistant ([2]; T2 seed ID 12-7, pCab-SU111): 40%; #R number of resistant seedlings ([2]; T2 seed ID 12-8, pCab-SU111): 1; #S number of sensitive seedlings ([2]; T2 seed ID 12-8, pCab-SU111): 7; % R percent of seedlings which are resistant ([2]; T2 seed ID 12-8, pCab-SU111): 13%; #R number of resistant seedlings ([2]; T2 seed ID 12-9, pCab-SU111): 3; #S number of sensitive seedlings ([2]; T2 seed ID 12-9, pCab-SU111): 9; % R percent of seedlings which are resistant ([2]; T2 seed ID 12-9, pCab-SU111): 25%; #R number of resistant seedlings ([2]; T2 seed ID 12-10, pCab-SU111): 9; #S number of sensitive seedlings ([2]; T2 seed ID 12-10, pCab-SU111): 0; % R percent of seedlings which are resistant ([2]; T2 seed ID 12-10, pCab-SU111): 100%; #R number of resistant seedlings ([2]; T2 seed ID 12-11, pCab-SU111): 4; #S number of sensitive seedlings ([2]; T2 seed ID 12-11, pCab-SU111): 0; % R percent of seedlings which are resistant ([2]; T2 seed ID 12-11, pCab-SU111): 100%; #R number of resistant seedlings ([2]; T3 seed ID 12-1-1, pCab-SU111): 0; #S number of sensitive seedlings ([2]; T3 seed ID 12-1-1, pCab-SU111): 196; % R percent of seedlings which are resistant ([2]; T3 seed ID 12-1-1, pCab-SU111): 0%; #R number of resistant seedlings ([2]; T3 seed ID 12-1-2, pCab-SU111): 0; #S number of sensitive seedlings ([2]; T3 seed ID 12-1-2, pCab-SU111): 191; % R percent of seedlings which are resistant ([2]; T3 seed ID 12-1-2, pCab-SU111): 0%; #R number of resistant seedlings ([2]; T3 seed ID 12-1-3, pCab-SU111): 42; #S number of sensitive seedlings ([2]; T3 seed ID 12-1-3, pCab-SU111): 90; % R percent of seedlings which are resistant ([2]; T3 seed ID 12-1-3, pCab-SU111): 32%; #R number of resistant seedlings ([2]; T3 seed ID 12-1-4, pCab-SU111): 80; #S number of sensitive seedlings ([2]; T3 seed ID 12-1-4, pCab-SU111): 129; % R percent of seedlings which are resistant ([2]; T3 seed ID 12-1-4, pCab-SU111): 37%; #R number of resistant seedlings ([2]; T3 seed ID 12-1-5, pCab-SU111): 99; #S number of sensitive seedlings ([2]; T3 seed ID 12-1-5, pCab-SU111): 177; % R percent of seedlings which are resistant ([2]; T3 seed ID 12-1-5, pCab-SU111): 36%; #R number of resistant seedlings ([2]; T3 seed ID 12-1-6, pCab-SU111): 83; #S number of sensitive seedlings ([2]; T3 seed ID 12-1-6, pCab-SU111): 152; % R percent of seedlings which are resistant ([2]; T3 seed ID 12-1-6, pCab-SU111): 35%; #R number of resistant seedlings ([2]; WT): 58; #S number of sensitive seedlings ([2]; WT): 5; % R percent of seedlings which are resistant ([2]; WT): 92%; Visual Inhibition Ratings of Seedlings ([2]; Wild type, 1 ppb 10015): 1; Visual Inhibition Ratings of Seedlings ([2]; Wild type, 2 ppb 10015): 1; Visual Inhibition Ratings of Seedlings ([2]; Wild type, 5 ppb 10015): 1; Visual Inhibition Ratings of Seedlings ([2]; Wild type, 10 ppb 10015): 1; Visual Inhibition Ratings of Seedlings ([2]; Wild type, 20 ppb 10015): 1
